Source: US5290948A, “Process for producing polyhydroxylated piperidines and pyrrolidines and compounds thereof” (McNeilab, Inc., priority 1990, dated 1994)
Structures can show the parent of a compound that is named as a salt.

Key:
Maltase = assay: Inhibition of maltase (α-glycosidase, maltose-cleaving activity); assay type: biochemical, rabbit; settings: for Inh. of Maltase: at 100 µM (Table 1 head)
Method: […] In addition compounds 1 and 2 were screened at a dose of 1 mM. These compounds are described in Examples 6, 81 10, 11 and 12. […] Compounds 1, 2, 6 and 12 are novel compounds having glucitol stereochemistry. Compound 11 is likewise novel and it has the iditol stereochemistry.
(§1) The inhibition of maltase (sucrase) tests was carried out as recited hereinafter. Partially purified α-glycosidase was isolated from the rabbit's small intestine as described in the literature (B. L. Rhinehart et al. Life Sci. 1987, 41, 2325). The α-glycosidase activity was measured using […] as substrates. β-Glycosidase from almonds was obtained from Sigma (St. Louis), and β-glycosidase activity was measured using lactose as a substrate. The incubation mixture (200 μL) consisted of substrate (100 mM), enzyme, 100 mM NaCl, 0.1 mM Na2 EDTA and either 10 mM MOPS (for pH 7), 10 mM maleic acid (for pH 6), or 10 Mm acetate (for pH 5) as buffer (adjusted to their respective pH with NaOH). Compounds dissolved in dimethylsulfoxide were added (final concentration of dimethylsulfoxide in the assay was 1%). The assay was performed at 37 deg C. for 30 minutes and arrested by incubation for 3 min at 85 deg C. After centrifugation for 2 min at 10,000 g, the supernatant was collected and processed for glucose determination. Glucose was measured with the hexokinase method (kit obtained from Boehringer Mannheim) on an EPOS 5060 EPPENDORF autoanalyser.

β-Glycosidase = assay: Inhibition of lactose activity (β-glycosidase); assay type: biochemical, almonds
Method: as §1

HIV-1 = assay: Anti-HIV-1 activity in MT-4 cells; assay type: cell-based; settings: for HIV1/HIV2 Act. (HIV1): Table 1, MT-4 cells, viable cells after five days; for inhibited the growth of HIV-1: at high concentrations
Method: Anti-HIV-1 activity was tested in MT-4 cells as described previously (Pauwels et al. J. Virol Methods 1987, 11, 171). The cells were either infected with HIV-1 or mock infected and incubated in the presence of the test compounds. The number of viable cells was then determined after five days (Pauwels et al. J. Virol Methods 1988, 20, 309).

glycosidase = assay: Glycosidase inhibition, overall statement; assay type: biochemical
Method: Compounds 6, 11 and 12 in Table 1 were screened at a single dose (100 micromolar) against sucrase and maltase, two glycosidase enzymes. In addition compounds 1 and 2 were screened at a dose of 1 mM. These compounds are described in Examples 6, 81 10, 11 and 12. […] Compounds 1, 2, 6 and 12 are novel compounds having glucitol stereochemistry. Compound 11 is likewise novel and it has the iditol stereochemistry.
as §1

Sucrase = target: T1, Sucrase (Oryctolagus cuniculus, UniProt P07768); assay: Inhibition of sucrase (α-glycosidase); assay type: biochemical, rabbit; settings: at 100 mM (Table 1 head)
T1 construct: Partially purified α-glycosidase was isolated from the rabbit's small intestine; from tissue; host or cells: rabbit small intestine, partially purified
T1 sequence (P07768 1008-1827 limits assumed): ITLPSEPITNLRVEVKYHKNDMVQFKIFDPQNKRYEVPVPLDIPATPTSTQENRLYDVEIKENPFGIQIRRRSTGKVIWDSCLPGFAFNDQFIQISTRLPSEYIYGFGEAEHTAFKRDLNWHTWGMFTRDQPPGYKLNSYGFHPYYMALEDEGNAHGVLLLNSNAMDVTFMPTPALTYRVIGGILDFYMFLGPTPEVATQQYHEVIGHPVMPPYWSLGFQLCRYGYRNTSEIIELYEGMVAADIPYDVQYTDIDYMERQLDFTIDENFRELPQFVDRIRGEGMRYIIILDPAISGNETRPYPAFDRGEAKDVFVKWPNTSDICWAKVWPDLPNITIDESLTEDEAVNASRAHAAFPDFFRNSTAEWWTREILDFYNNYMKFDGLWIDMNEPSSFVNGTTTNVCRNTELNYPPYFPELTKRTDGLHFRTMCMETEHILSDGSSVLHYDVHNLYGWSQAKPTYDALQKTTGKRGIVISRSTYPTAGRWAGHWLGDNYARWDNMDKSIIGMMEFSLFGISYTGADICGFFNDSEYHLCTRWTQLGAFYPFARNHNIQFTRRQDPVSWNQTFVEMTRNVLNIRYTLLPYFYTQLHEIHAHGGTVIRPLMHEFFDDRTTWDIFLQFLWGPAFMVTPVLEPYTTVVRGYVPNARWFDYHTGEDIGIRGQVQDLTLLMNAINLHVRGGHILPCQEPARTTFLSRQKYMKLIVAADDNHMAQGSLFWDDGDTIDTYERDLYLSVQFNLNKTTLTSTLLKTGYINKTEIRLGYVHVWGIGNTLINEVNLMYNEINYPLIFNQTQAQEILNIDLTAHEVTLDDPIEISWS
T1 sequence (P07768 2-1007 partner limits assumed): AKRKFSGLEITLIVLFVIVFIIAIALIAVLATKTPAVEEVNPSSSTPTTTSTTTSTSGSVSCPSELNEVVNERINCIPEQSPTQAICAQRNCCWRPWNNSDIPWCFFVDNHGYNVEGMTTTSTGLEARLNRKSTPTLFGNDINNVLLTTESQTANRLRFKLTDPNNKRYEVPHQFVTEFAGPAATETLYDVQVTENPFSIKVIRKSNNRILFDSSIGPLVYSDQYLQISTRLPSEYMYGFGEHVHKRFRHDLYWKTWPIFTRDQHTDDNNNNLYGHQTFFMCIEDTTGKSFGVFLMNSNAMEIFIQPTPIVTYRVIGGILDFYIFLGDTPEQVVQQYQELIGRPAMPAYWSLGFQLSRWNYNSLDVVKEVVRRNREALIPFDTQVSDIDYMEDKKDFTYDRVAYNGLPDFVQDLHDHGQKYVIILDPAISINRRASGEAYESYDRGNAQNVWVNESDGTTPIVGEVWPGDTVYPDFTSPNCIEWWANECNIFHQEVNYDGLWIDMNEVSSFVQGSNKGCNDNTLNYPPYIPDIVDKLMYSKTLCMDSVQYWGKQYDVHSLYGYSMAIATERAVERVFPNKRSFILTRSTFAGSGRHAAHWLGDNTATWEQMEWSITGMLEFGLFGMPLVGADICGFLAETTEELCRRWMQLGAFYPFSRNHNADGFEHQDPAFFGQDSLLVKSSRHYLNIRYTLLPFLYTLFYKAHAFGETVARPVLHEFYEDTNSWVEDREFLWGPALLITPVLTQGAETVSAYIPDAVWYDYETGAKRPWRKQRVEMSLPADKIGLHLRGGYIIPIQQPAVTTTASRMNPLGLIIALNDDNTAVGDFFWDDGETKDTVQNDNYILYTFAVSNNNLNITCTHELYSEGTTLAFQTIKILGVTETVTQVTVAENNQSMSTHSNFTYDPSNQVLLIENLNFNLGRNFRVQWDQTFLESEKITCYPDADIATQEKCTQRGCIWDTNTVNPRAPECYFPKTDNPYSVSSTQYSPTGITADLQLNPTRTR
Method: […] In addition compounds 1 and 2 were screened at a dose of 1 mM. These compounds are described in Examples 6, 81 10, 11 and 12.
as §1

HIV2 = assay: Anti-HIV-2 activity; assay type: cell-based; settings: Table 1

| Molecule | Inh. of Maltase (Maltase) | HIV1/HIV2 Act. (HIV1) (HIV-1) | glycosidase inhibition (in words) (glycosidase) | other results |
| --- | --- | --- | --- | --- |
| OC[C@@H]1[C@@H](O)[C@H](O)[C@H](CO)N1C(c1ccccc1)c1ccccc1 [Compound 1] | 0% | Weak anti-HIV1 act. | glycosidase inhibitors | inhibition of maltase (Maltase; at 10^-3 M (footnote 1)): 40%; inhibition of lactose activity (β-Glycosidase; at 10^-4 M, pH 5 (footnote 1)): 58%; inhibited the growth of HIV-1 (HIV-1): inhibited the growth of HIV-1 at high concentrations |
| OCC1[C@@H](O)[C@H](O)C(CO)N1CCc1ccc(F)cc1 (some centres unmarked) [Compound 17] | – | No anti-HIV1 act. | – | – |
| OC[C@@H]1[C@@H](O)[C@H](O)[C@@H](CO)N1C(c1ccccc1)c1ccccc1 [Compound 3, N-Benzhydryl-2,5-anhydro-2,5-imino-D-mannitol] | 0% | No anti-HIV1 act. | – | – |
| CCOC(=O)N1CCC(N2C(CO)[C@@H](O)[C@H](O)C2CO)CC1 (some centres unmarked) [Compound 13] | 0% | No anti-HIV1 act. | – | – |
| OC[C@@H]1[C@@H](O)[C@H](O)[C@H](CO)N1CCCC(c1ccc(F)cc1)c1ccc(F)cc1 [Compound 12, N-[4,4-bis(4-Fluorophenyl)butyl]-2,5-anhydro-2,5-imino-D-glucitol tosylate] | 20% | Weak anti-HIV1 act. | glycosidase inhibitors | inhibited the growth of HIV-1 (HIV-1): inhibited the growth of HIV-1 at high concentrations |
| OCC1[C@@H](O)[C@H](O)C(CO)N1CCCOc1ccc(F)cc1 (some centres unmarked) [Compound 8] | 0% | No anti-HIV1 act. | – | – |
| OC[C@H]1[C@@H](O)[C@H](O)[C@H](CO)N1c1ccc(F)cc1 [Compound 11] | 19% | No anti-HIV1 act. | glycosidase inhibitors | – |
| CCCCN1[C@H](CO)[C@@H](O)[C@H](O)[C@@H]1CO [Compound 16] | 0% | – | – | – |
| N-Stearyl-2,5-anhydro-2,5-imino-D-glucitol [Compound 6] | 1% | Weak anti-HIV1 and HIV2 | glycosidase inhibitors | Inh. of (Sucrase) (Sucrase): 6%; inhibited the growth of HIV-1 (HIV-1): inhibited the growth of HIV-1 at high concentrations; HIV1/HIV2 Act. (HIV2) (HIV2): Weak anti-HIV1 and HIV2 |
| COC1CN(CCCOc2ccc(F)cc2)CCC1N1C(CO)[C@@H](O)[C@H](O)[C@H]1CO (some centres unmarked) [Compound 22] | 0% | No anti-HIV1 act. | – | – |
| OC[C@@H]1N[C@H](CO)[C@@H](O)[C@@H]1O [Compound 2, 2,5-Anhydro-2,5-imino-D-glucitol] | 0% | No anti-HIV1 act. | glycosidase inhibitors | inhibition of lactose activity (β-Glycosidase; at 10^-3 M, pH 5 (footnote 2)): 44% |
| OC[C@@H]1[C@@H](O)[C@H](O)[C@H](CO)N1c1ccc(F)cc1 [Compound 9, N-(4-Fluorophenyl)-2,5-anhydro-2,5-imino-D-glucitol] | 0% | No anti-HIV1 act. | – | – |
| OCCCN1C(CO)[C@@H](O)[C@H](O)C1CO (some centres unmarked) [Compound 15] | 0% | – | – | – |
| OC[C@@H]1[C@@H](O)[C@H](O)[C@@H](CO)N1c1ccc(F)cc1 [Compound 10] | 0% | No anti-HIV1 act. | – | – |
